One assay addresses T1, human TLR7 (Homo sapiens, UniProt Q9NYK1).
T1 construct: expressed in transfected cells; host or cells: HEK293
T1 sequence (Q9NYK1 27-1049): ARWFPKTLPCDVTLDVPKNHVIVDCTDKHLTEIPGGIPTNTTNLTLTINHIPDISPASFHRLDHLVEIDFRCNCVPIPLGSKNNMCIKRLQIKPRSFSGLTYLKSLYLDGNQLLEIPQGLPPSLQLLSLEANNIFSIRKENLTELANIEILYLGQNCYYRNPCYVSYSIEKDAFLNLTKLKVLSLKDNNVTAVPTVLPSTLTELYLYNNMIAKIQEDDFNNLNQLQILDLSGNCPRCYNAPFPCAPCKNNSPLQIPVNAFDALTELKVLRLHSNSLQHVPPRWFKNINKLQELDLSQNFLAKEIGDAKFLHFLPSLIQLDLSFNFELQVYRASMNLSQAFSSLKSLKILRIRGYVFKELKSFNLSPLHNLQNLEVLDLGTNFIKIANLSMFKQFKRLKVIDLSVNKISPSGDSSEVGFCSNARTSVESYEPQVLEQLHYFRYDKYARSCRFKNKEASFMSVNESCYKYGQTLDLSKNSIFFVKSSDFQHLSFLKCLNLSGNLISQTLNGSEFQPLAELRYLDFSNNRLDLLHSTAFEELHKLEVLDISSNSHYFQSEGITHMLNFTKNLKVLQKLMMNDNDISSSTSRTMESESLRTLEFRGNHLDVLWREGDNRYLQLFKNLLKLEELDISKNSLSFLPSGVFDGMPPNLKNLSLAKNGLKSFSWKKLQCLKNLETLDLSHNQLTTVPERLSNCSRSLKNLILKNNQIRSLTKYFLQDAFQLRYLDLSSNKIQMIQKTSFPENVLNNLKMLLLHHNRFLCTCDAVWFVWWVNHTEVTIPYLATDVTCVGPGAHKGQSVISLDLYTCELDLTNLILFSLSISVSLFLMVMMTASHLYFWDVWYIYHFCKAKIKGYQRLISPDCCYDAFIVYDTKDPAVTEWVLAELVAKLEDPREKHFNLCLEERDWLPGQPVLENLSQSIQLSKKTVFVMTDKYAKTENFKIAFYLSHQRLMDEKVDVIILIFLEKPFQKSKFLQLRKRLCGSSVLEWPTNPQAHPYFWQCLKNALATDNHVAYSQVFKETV
The experiment in a line: TLR ligand screening: NF-κB activation (SEAP reporter) in HEK293 cells expressing TLR7. Type of assay: cell-based. The following applies: one concentration: NTR001 10 uM, Inosine 100 uM; FIG. 2. The procedure: (§1) Method: TLR stimulation is tested by assessing NF-κB activation in HEK293 cells expressing a given TLR. The Secreted Embryonic Alkaline Phosphatase (SEAP) reporter is under the control of a promoter inducible by the transcription factor NF-κB. This reporter gene allows the monitoring of signaling through the TLR, based on the activation of NF-κB. The compounds are evaluated at one concentration and compared to control ligands. This step is performed in triplicate.

Another assay has as its target T2, human TLR9 (Homo sapiens, UniProt Q9NR96).
T2 construct: expressed in transfected cells; host or cells: HEK293
T2 sequence (Q9NR96 26-1032): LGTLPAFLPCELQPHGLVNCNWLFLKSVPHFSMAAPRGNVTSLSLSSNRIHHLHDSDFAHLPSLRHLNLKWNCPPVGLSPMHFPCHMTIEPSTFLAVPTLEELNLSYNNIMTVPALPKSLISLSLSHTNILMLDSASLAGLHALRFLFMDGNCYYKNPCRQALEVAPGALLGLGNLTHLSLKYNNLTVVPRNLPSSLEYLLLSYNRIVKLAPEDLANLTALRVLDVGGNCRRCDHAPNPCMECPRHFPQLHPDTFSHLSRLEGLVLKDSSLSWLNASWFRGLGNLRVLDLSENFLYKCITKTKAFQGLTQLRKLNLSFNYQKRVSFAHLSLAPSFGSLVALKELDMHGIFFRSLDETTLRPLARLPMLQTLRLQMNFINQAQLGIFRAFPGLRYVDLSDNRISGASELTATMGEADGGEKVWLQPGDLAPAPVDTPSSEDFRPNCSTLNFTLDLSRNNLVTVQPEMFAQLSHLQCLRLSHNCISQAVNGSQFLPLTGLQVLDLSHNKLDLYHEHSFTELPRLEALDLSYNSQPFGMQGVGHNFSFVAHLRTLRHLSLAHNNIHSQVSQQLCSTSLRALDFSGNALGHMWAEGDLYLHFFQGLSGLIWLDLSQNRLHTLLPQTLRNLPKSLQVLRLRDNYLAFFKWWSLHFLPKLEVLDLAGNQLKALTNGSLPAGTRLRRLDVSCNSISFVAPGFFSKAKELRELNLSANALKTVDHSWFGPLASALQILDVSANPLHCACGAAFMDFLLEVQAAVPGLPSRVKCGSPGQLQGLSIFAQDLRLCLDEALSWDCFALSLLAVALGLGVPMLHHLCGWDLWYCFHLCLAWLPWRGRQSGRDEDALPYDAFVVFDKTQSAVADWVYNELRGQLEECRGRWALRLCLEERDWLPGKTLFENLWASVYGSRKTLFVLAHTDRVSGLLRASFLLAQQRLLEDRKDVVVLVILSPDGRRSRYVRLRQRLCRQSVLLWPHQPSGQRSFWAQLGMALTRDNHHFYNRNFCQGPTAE
The experiment in a line: TLR ligand screening: NF-κB activation (SEAP reporter) in HEK293 cells expressing TLR9. The assay is classed as cell-based. The following applies: one concentration: NTR001 10 uM, Inosine 100 uM; FIG. 2. On the procedure:
as §1

SMILES strings stand for the structures.

With `OC[C@H]1O[C@@H](n2cnc3c(O)ncnc32)[C@H](O)[C@@H]1O` [Inosine], the “stimulatory effect on human TLR7” value on human TLR7 is listed as “do not exhibit a stimulatory effect”. The “stimulatory effect on human TLR9” value on human TLR9 was “do not exhibit a stimulatory effect”.

Turning to `O=c1[nH]cnc2c([C@@H]3N[C@H](CO)[C@@H](O)[C@H]3O)c[nH]c12` [NTR001, 7-[(2S,3S,4R,5R)-3,4-dihydroxy-5-(hydroxymethyl)-2-pyrrolidinyl]-1,5-dihydro-4H-pyrrolo [3,2-d]pyrimidin-4-one], the “stimulatory effect on human TLR7” value at human TLR7 was “do not exhibit a stimulatory effect”. The “stimulatory effect on human TLR9” value on human TLR9 is listed as “do not exhibit a stimulatory effect”.

The values above are taken from patent US9452217B2, “Methods for potentiating immune response for the treatment of infectious diseases and cancer” (Nitor Therapeutics, priority 2013, dated 2016).
